{
  "source": "paper PMC5084670",
  "about": "(Cancer Science, 2016)",
  "key": {"[1]": {"details": "cited from earlier work"}, "[2]": {"experiment": "Pharmacokinetics of sonidegib in plasma", "type": "in vivo, human", "details": "for Exposure accumulation as the AUC ratio / AUC accumulation: cycle 1 day 15; for AUC(0-t) / Tmax / Cmax: human, plasma, oral; for Tmax: T max; for Cmax: C max"}, "[3]": {"details": "cited from earlier work", "remark": "listed apart in the source"}, "[4]": {"system": "primary human muscle cells", "details": "cited from earlier work"}, "[5]": {"details": "patients from Europe and the USA, CLDE225X2101 study"}},
  "data": [
    {"smiles": "Cc1c(C(=O)Nc2ccc(N3C[C@@H](C)O[C@@H](C)C3)nc2)cccc1-c1ccc(OC(F)(F)F)cc1", "note": "[Sonidegib]", "values": [
      {"measurement": "Rhabdomyolysis, patients", "setting": "[1]; CLDE225X2101 study", "value": "three"},
      {"measurement": "Half-life (t 1/2)", "setting": "[1]; as reported in non-Asian patients", "value": "~ 28 days"},
      {"measurement": "AUClast", "setting": "[1]; cycle 1 day 15, 400 mg, non-Asian patients (CLDE225X2101)", "value": 8806, "unit": "ng·h/mL"},
      {"measurement": "Maximum tolerated dose (MTD), once daily", "setting": "[1]; [5]", "value": 800, "unit": "mg q.d."},
      {"measurement": "Maximum tolerated dose (MTD), twice daily", "setting": "[1]; [5]", "value": 250, "unit": "mg b.i.d."},
      {"measurement": "Steady state", "setting": "[2]; both groups", "value": "not achieved within cycle 1"},
      {"measurement": "Plasma concentration at 168 h after a single dose", "setting": "[2]; both groups at every dose", "value": "detected"},
      {"measurement": "Exposure accumulation as the AUC ratio", "setting": "[2]; group 1, 400 mg", "value": 4.9, "unit": "fold"},
      {"measurement": "Accumulation in trough levels", "setting": "[2]; group 1, 400 mg, cycle 2 day 1 vs 24-h post-dose concentration in run-in", "value": 12.4, "unit": "fold"},
      {"measurement": "Accumulation in trough levels", "setting": "[2]; group 1, 400 mg, cycle 2 day 22 vs 24-h post-dose concentration in run-in", "value": 19.6, "unit": "fold"},
      {"measurement": "Exposure accumulation as the AUC ratio", "setting": "[2]; group 1, 600 mg", "value": 4.6, "unit": "fold"},
      {"measurement": "Accumulation in trough levels", "setting": "[2]; group 1, 600 mg, cycle 2 day 1 vs 24-h post-dose concentration in run-in", "value": 14.3, "unit": "fold"},
      {"measurement": "Accumulation in trough levels", "setting": "[2]; group 1, 600 mg, cycle 2 day 22 vs 24-h post-dose concentration in run-in", "value": 19.9, "unit": "fold"},
      {"measurement": "AUC accumulation", "setting": "[2]; group 2, 400 mg", "value": "approximately 4.3 fold"},
      {"measurement": "Trough accumulation", "setting": "[2]; group 2, 400 mg, cycle 2 day 1", "value": 13.9, "unit": "fold"},
      {"measurement": "Trough accumulation", "setting": "[2]; group 2, 400 mg, cycle 2 day 22", "value": 16.3, "unit": "fold"},
      {"measurement": "AUC accumulation", "setting": "[2]; group 2, 600 mg", "value": "~4.2", "unit": "fold"},
      {"measurement": "Trough accumulation", "setting": "[2]; group 2, 600 mg, cycle 2 day 1", "value": 12.3, "unit": "fold"},
      {"measurement": "Trough accumulation", "setting": "[2]; group 2, 600 mg, cycle 2 day 22", "value": 13.8, "unit": "fold"},
      {"measurement": "AUC accumulation", "setting": "[2]; group 2, 800 mg", "value": "~6.0", "unit": "fold"},
      {"measurement": "AUC(0-t)", "setting": "[2]; 400 mg q.d., AUClast, cycle 1, day 15 (last sampling 24 h), group 2, 400 mg q.d., n = 9, geometric mean (% CV)", "value": 12300, "unit": "ng·h/mL"},
      {"measurement": "AUC(0-t)", "setting": "[2]; 400 mg, AUC0–24, pharmacokinetic run-in (single dose), group 1, 400 mg, n = 12, geometric mean (% CV)", "value": 2010, "unit": "ng·h/mL"},
      {"measurement": "AUC(0-t)", "setting": "[2]; 400 mg, AUC0–24, pharmacokinetic run-in (single dose), group 2, 400 mg, n = 12, geometric mean (% CV)", "value": 2890, "unit": "ng·h/mL"},
      {"measurement": "Tmax", "setting": "[2]; 400 mg, cycle 1, day 15, group 1, 400 mg q.d., n = 12, median", "value": 2, "unit": "h"},
      {"measurement": "Tmax", "setting": "[2]; 400 mg, pharmacokinetic run-in (single dose), group 1, 400 mg, n = 12, median", "value": 3, "unit": "h"},
      {"measurement": "Tmax", "setting": "[2]; 400 mg, pharmacokinetic run-in (single dose), group 2, 400 mg, n = 12, median", "value": 3, "unit": "h"},
      {"measurement": "AUC(0-t)", "setting": "[2]; 600 mg, AUC0–24, pharmacokinetic run-in (single dose), group 1, 600 mg, n = 9, geometric mean (% CV)", "value": 3330, "unit": "ng·h/mL"},
      {"measurement": "AUC(0-t)", "setting": "[2]; 600 mg, AUC0–24, pharmacokinetic run-in (single dose), group 2, 600 mg, n = 8, geometric mean (% CV)", "value": 3420, "unit": "ng·h/mL"},
      {"measurement": "Cmax", "setting": "[2]; 600 mg, cycle 1, day 15, group 1, 600 mg q.d., n = 8, geometric mean (% CV)", "value": 1010, "unit": "ng/mL"},
      {"measurement": "Tmax", "setting": "[2]; 600 mg, cycle 1, day 15, group 1, 600 mg q.d., n = 8, median", "value": 2, "unit": "h"},
      {"measurement": "Tmax", "setting": "[2]; 600 mg, cycle 1, day 15, group 2, 600 mg q.d., n = 5, median", "value": 4, "unit": "h"},
      {"measurement": "Tmax", "setting": "[2]; 600 mg, pharmacokinetic run-in (single dose), group 1, 600 mg, n = 9, median", "value": 2, "unit": "h"},
      {"measurement": "Tmax", "setting": "[2]; 600 mg, pharmacokinetic run-in (single dose), group 2, 600 mg, n = 8, median", "value": 3, "unit": "h"},
      {"measurement": "AUC(0-t)", "setting": "[2]; 800 mg, AUC0–24, pharmacokinetic run-in (single dose), group 2, 800 mg, n = 4, geometric mean (% CV)", "value": 3650, "unit": "ng·h/mL"},
      {"measurement": "Cmax", "setting": "[2]; 800 mg, cycle 1, day 15, group 2, 800 mg q.d., n = 2, geometric mean (% CV)", "value": 1230, "unit": "ng/mL"},
      {"measurement": "Tmax", "setting": "[2]; 800 mg, pharmacokinetic run-in (single dose), group 2, 800 mg, n = 4, median", "value": 2, "unit": "h"},
      {"measurement": "Tmax", "setting": "[2]; after a single dose in run-in period and repeated dosing in cycle 1 day 15, both groups", "value": "2 to 4", "unit": "h"},
      {"measurement": "Commonly reported AE: alopecia", "setting": "[3]", "value": 63, "unit": "%"},
      {"measurement": "Commonly reported AE: asthenia", "setting": "[3]", "value": 36, "unit": "%"},
      {"measurement": "Commonly reported AE: dysgeusia", "setting": "[3]", "value": 70, "unit": "%"},
      {"measurement": "Commonly reported AE: weight loss", "setting": "[3]", "value": 46, "unit": "%"},
      {"measurement": "Effect on muscle cells", "setting": "[4]", "value": "induce muscle contraction and muscle fiber twitching"}
    ]}
  ]
}
